This is an account of results in patent publication US11541029B2, “High penetration compositions and their applications” (Techfields Pharma Co., Ltd., priority 2008, dated 2023).

The test has as its system SLAC:NOD-IDDM, type 1 diabetes. Briefly: Anti-diabetes (type I) activity of HPCs of NSAIAs. It counts as in vivo, mice. In short, it runs like this:
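Prodrugs given transdermally to the shaved back (about 1.5 cm^2) twice daily at 8 am and 5 pm for 7 weeks, dosed as equal to 20 mg/kg of NSAIA. Non-fasting blood glucose was measured every 3 days at 4:30 pm from week 4 to week 7.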

With `CCN(CC)CCOC(=O)c1ccccc1OC(C)=O.Cl` [P-1, diethylaminoethyl acetylsalicylate.HCl salt], the “blood glucose, Baseline” value (equal to 20 mg/kg of NSAIAs transdermally twice per day for 7 weeks) was 18.1 ± 4.5 mmol/L. Also, the “blood glucose, Average” value (fourth week to seventh week, no fasting, equal to 20 mg/kg of NSAIAs transdermally twice per day) is on record as 7.5 ± 1.8 mmol/L.
